Our source for the inhibition values is patent publication EP0877740B1, “THIOL DERIVATIVES WITH METALLOPEPTIDASE INHIBITORY ACTIVITY” (ZAMBON GROUP S.p.A., priority 1995, dated 1997).

For the assay, the target named is T1, ACE (Rattus norvegicus, UniProt P47820).
T1 construct: After the removal of the lungs from SHR, the lung tissue was homogenized; from tissue; host or cells: lung homogenate of spontaneously hypertensive rats (SHR)
T1 sequence (P47820 36-1313): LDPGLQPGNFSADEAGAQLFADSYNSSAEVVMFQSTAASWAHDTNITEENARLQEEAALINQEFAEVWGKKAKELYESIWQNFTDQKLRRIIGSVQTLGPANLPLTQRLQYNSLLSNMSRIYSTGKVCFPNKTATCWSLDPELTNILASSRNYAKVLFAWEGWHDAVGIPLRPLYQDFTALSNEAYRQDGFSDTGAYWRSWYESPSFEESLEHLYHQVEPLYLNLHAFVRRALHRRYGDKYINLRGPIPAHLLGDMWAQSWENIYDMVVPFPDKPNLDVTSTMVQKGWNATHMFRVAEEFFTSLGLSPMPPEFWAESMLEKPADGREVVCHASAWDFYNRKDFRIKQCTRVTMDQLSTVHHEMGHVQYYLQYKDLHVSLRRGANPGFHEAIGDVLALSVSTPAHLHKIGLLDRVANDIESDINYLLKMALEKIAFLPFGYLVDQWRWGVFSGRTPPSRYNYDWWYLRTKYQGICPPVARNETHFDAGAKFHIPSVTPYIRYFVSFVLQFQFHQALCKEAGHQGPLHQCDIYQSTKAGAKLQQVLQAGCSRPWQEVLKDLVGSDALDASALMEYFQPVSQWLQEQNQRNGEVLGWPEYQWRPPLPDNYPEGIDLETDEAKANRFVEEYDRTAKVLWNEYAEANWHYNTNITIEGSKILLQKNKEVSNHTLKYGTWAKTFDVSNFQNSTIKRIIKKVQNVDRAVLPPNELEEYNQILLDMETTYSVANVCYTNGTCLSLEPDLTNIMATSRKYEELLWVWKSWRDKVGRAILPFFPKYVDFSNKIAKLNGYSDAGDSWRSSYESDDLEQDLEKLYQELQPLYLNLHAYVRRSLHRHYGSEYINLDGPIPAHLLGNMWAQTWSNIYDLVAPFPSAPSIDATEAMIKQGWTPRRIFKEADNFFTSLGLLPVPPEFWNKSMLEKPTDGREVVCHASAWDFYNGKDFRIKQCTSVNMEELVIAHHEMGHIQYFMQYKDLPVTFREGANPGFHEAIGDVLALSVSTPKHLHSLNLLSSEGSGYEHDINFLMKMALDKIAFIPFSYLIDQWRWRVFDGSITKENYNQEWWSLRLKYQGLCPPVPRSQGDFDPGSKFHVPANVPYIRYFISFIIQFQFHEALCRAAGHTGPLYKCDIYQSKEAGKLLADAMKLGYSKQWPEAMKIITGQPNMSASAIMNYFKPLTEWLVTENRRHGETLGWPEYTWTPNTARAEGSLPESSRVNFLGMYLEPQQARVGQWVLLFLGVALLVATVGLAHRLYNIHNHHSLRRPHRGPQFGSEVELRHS
Briefly: Ex vivo ACE-inhibitory activity in lung homogenates of treated SHR (radiometric, [3H]Hyp-Gly-Gly). Further details: species or system spontaneously hypertensive rats (SHR). As to conditions: SHR lungs; for inhibition at 30 µmol/kg: oral 30 µmoles/kg. As to the method:
The ex-vivo ACE/NEP-inhibitory activity, in particular, was determined by evaluating the enzymatic activity in tissue homogenates (lung and kidney for ACE and NEP activity, respectively) from spontaneously hypertensive rats (SHR) treated with the tested compounds by intravenous or oral route.
The ex vivo ACE-inhibitory activity was evaluated by using a radiometric assay method, as reported in the literature by J. W. Ryan et al. in Biochem. J. (1977), 167, 501-504.
The inhibitory activity of the compounds of formula I was evaluated in lungs of spontaneously hypertensive rats (SHR), 5 minutes after i.v. injection (0.6 and 21 µmoles/kg) and 30 minutes, 60 minutes and 4 hours after oral administration (30 µmoles/kg) of the tested compounds.
After the removal of the lungs from SHR, the lung tissue was homogenized and incubated for 2 hours at 37°C in the presence of [^3H]Hyp-Gly-Gly, as a substrate.
The reaction was stopped by adding hydrochloric acid.
The released radiolabelled hyppuric acid was extracted with ethyl acetate and counted by liquid scintillation spectrometry, according to conventional methods.
The ACE-inhibitory activity of the tested compounds was expressed as percentage of ACE-inhibition in SHR lungs.

Structures are written as SMILES. Where two headings read alike, the source gives them in different places.

As a reminder, the inhibition is how much of the control response was suppressed.

Regarding `O=C(N[C@@H](Cc1ccc(-c2nccs2)cc1)C(=O)O)[C@@H](CS)Cc1ccccc1` [Compound 16, N-[(2S)-3-mercapto-2-phenylmethylpropionyl]-4-(2-thiazolyl)-L-phenylalanine], the inhibition at 30 µmol/kg reads like this: (30 minutes after administration, read-out: ACE-inhibition (lungs) 30 minutes) 60%; (60 minutes after administration, read-out: ACE-inhibition (lungs) 60 minutes) 36%; (4 hours after administration, read-out: ACE-inhibition (lungs) 4 hours) 45%. Besides, the inhibition at 0.6 µmol/kg (iv, i.v. 0.6 µmoles/kg, 5 minutes after injection) worked out at 15%. The same compound yielded an inhibition at 21 µmol/kg (iv, i.v. 21 µmoles/kg, 5 minutes after injection) of 72%.
